From patent US5994629A, “Positive selection” (priority 1991, dated 1999)
Counter-ions that a name gives are not always drawn. Like-named read-outs stand apart in the source and are kept apart here.

What was measured:
potato stem segments = experiment: Carbohydrate sources, potato stem segments, 9 weeks; format: cell-based; details: 5 g/l, 9 weeks; for activity at 5000 µg/mL: Solanum tuberosum
Text: Similar results are observed with potato stem segments after 9 weeks of culturing.

explants = experiment: Inhibition of the toxicity of mannose by methyl-3-O-glucose; format: cell-based
Text: Example 25 is repeated except that the selection/regeneration substrate is supplemented with methyl 3-0-glucose (MOG) at the concentrations indicated in Table 25. The percentage of live explants is registered after 8 weeks.

Wild type explants = experiment: Shoot regeneration on mannose, sucrose and methyl-3-O-glucose, wild type; format: cell-based; details: Wild type
[1] = system: plant material transgenic for the mannose 6-phosphate isomerase gene; experiment: Effect of methyl-3-O-glucose on selection of transgenic shoots on mannose; format: cell-based; details: mannose 15 g/l, no sucrose
Text: The transformed plant material is transgenic for the mannose 6-phosphate isomerase gene. After 21 days the selected shoots are harvested.

[2] = system: explants transgenic for the mannose 6-phosphate isomerase gene; experiment: Shoot regeneration on mannose, sucrose and methyl-3-O-glucose, Man-6-P-isomerase; format: cell-based; details: Man-6-P-isomerase
[3] = target: β-glucuronidase from E. coli (Escherichia coli, UniProt P05804); experiment: Hydrolysis by β-glucuronidase (GUS), HPLC/TLC; format: biochemical
Procedure: […] […] This confirms the identity of the product as a conjugate of BA and β-D-glucuronic acid.
[…] The presence of hydrolysis products is then determined using HPLC and TLC.

[4] = system: leaf discs of tobacco without (GUS-) introduced β-glucuronidase genes; format: cell-based, Nicotiana tabacum 'Wisconsin 38'; details: test compounds at several concentrations up to 250 μM in MSO
[5] = system: leaf discs of tobacco with (GUS+) introduced β-glucuronidase genes; format: cell-based, Nicotiana tabacum 'Wisconsin 38'; details: test compounds at several concentrations up to 250 μM in MSO
[6] = system: plant material transgenic for the mannose 6-phosphate isomerase gene; experiment: Selection on mannose together with phloridzin; format: cell-based; details: 0.5 g/l phloridzin
Text: The transformed plant material is transgenic for the mannose 6-phosphate isomerase gene. After 21 days the selected shoots are harvested. […] Example 29 is repeated except that MOG is substituted by phloridzin. […] This is an example of how cross feeding and the production of escapers can be minimized by the addition of a carbohydrate transport inhibitor.

[7] = MOG 2.5, mannose 0 g/l, sucrose 10 g/l
[8] = MOG 2.5, mannose 5 g/l, sucrose 0 g/l
[9] = MOG 2.5, mannose 5 g/l, sucrose 10 g/l
[10] = MOG 2.5, mannose 10 g/l, sucrose 0 g/l
[11] = MOG 2.5, mannose 10 g/l, sucrose 10 g/l
[12] = MOG 2.5, mannose 20 g/l, sucrose 0 g/l
[13] = MOG 2.5, mannose 20 g/l, sucrose 10 g/l
[14] = MOG 5.0, mannose 0 g/l, sucrose 0 g/l
[15] = MOG 5.0, mannose 0 g/l, sucrose 10 g/l
[16] = MOG 5.0, mannose 5 g/l, sucrose 0 g/l
[17] = MOG 5.0, mannose 5 g/l, sucrose 10 g/l
[18] = MOG 5.0, mannose 10 g/l, sucrose 0 g/l
[19] = MOG 5.0, mannose 10 g/l, sucrose 10 g/l
[20] = MOG 5.0, mannose 20 g/l, sucrose 0 g/l
[21] = MOG 5.0, mannose 20 g/l, sucrose 10 g/l
[22] = mannose 5.0 g/l, first '+ Sucrose' column
[23] = mannose 5.0 g/l, second '+ Sucrose' column
[24] = mannose 7.5 g/l, first '+ Sucrose' column
[25] = mannose 7.5 g/l, second '+ Sucrose' column
[26] = mannose 10.0 g/l, first '+ Sucrose' column
[27] = mannose 10.0 g/l, second '+ Sucrose' column
[28] = mannose 12.5 g/l, first '+ Sucrose' column
[29] = mannose 15.0 g/l, first '+ Sucrose' column

Sequence of β-glucuronidase from E. coli (P05804 whole entry, looked up): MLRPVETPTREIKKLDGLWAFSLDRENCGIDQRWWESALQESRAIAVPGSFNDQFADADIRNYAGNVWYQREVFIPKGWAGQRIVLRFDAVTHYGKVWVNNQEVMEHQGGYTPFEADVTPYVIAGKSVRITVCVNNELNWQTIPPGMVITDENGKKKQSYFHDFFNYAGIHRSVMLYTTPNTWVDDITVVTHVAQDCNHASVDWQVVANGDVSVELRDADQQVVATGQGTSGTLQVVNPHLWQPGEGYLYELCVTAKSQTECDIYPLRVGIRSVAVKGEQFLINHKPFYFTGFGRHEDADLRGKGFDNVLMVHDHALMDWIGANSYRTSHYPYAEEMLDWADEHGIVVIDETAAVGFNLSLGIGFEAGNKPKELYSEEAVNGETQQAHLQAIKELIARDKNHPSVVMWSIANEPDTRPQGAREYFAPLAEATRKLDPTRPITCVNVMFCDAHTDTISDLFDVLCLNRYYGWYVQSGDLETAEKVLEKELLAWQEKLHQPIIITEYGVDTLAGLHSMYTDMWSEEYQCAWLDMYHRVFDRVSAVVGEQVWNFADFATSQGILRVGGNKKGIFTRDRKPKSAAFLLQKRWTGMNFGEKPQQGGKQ

O=C(CO)[C@@H](O)[C@H](O)CO [D-xylulose]
# of Shoots per explant (potato stem segments): 2.2 | activity at 5000 µg/mL (potato stem segments; read-out: Size % of control): 74% | activity at 5000 µg/mL (potato stem segments; read-out: explants alive % of control): 58%

CO[C@H]1[C@H](O)[C@@H](CO)OC(O)[C@@H]1O (some centres unmarked) [MOG, methyl 3-0-glucose]
percentage of live explants (explants; MOG 5 g/l, mannose 0 g/l, sucrose 0 g/l): 13 | percentage of live explants (explants; MOG 5 g/l, mannose 0 g/l, sucrose 10 g/l): 100 | percentage of live explants (explants; MOG 5 g/l, mannose 5 g/l, sucrose 0 g/l): 54 | percentage of live explants (explants; MOG 5 g/l, mannose 5 g/l, sucrose 10 g/l): 100 | percentage of live explants (explants; MOG 5 g/l, mannose 10 g/l, sucrose 0 g/l): 0 | percentage of live explants (explants; MOG 5 g/l, mannose 10 g/l, sucrose 10 g/l): 5 | percentage of live explants (explants; MOG 10 g/l, mannose 0 g/l, sucrose 0 g/l): 47 | percentage of live explants (explants; MOG 10 g/l, mannose 0 g/l, sucrose 10 g/l): 100 | percentage of live explants (explants; MOG 10 g/l, mannose 5 g/l, sucrose 0 g/l): 82 | percentage of live explants (explants; MOG 10 g/l, mannose 5 g/l, sucrose 10 g/l): 100 | percentage of live explants (explants; MOG 10 g/l, mannose 10 g/l, sucrose 0 g/l): 9 | percentage of live explants (explants; MOG 10 g/l, mannose 10 g/l, sucrose 10 g/l): 41 | percentage of live explants (explants; MOG 20 g/l, mannose 0 g/l, sucrose 0 g/l): 50 | percentage of live explants (explants; MOG 20 g/l, mannose 0 g/l, sucrose 10 g/l): 100 | percentage of live explants (explants; MOG 20 g/l, mannose 5 g/l, sucrose 0 g/l): 98 | percentage of live explants (explants; MOG 20 g/l, mannose 5 g/l, sucrose 10 g/l): 100 | percentage of live explants (explants; MOG 20 g/l, mannose 10 g/l, sucrose 0 g/l): 88 | percentage of live explants (explants; MOG 20 g/l, mannose 10 g/l, sucrose 10 g/l): 100 | regenerated shoots as a percentage of shoots on substrates without mannose and methyl-3-0-glucose (Wild type explants; MOG 2.5, mannose 0 g/l, sucrose 0 g/l, 11 weeks): 0 | regenerated shoots as a percentage of shoots on substrates without mannose and methyl-3-0-glucose (Wild type explants; [7]): 53 | regenerated shoots as a percentage of shoots on substrates without mannose and methyl-3-0-glucose (Wild type explants; [8]): 0 | regenerated shoots as a percentage of shoots on substrates without mannose and methyl-3-0-glucose (Wild type explants; [9]): 6 | regenerated shoots as a percentage of shoots on substrates without mannose and methyl-3-0-glucose (Wild type explants; [10]): 0 | regenerated shoots as a percentage of shoots on substrates without mannose and methyl-3-0-glucose (Wild type explants; [11]): 0 | regenerated shoots as a percentage of shoots on substrates without mannose and methyl-3-0-glucose (Wild type explants; [12]): 0 | regenerated shoots as a percentage of shoots on substrates without mannose and methyl-3-0-glucose (Wild type explants; [13]): 0 | regenerated shoots as a percentage of shoots on substrates without mannose and methyl-3-0-glucose (Wild type explants; [14]): 0 | regenerated shoots as a percentage of shoots on substrates without mannose and methyl-3-0-glucose (Wild type explants; [15]): 17 | regenerated shoots as a percentage of shoots on substrates without mannose and methyl-3-0-glucose (Wild type explants; [16]): 0 | regenerated shoots as a percentage of shoots on substrates without mannose and methyl-3-0-glucose (Wild type explants; [17]): 41 | regenerated shoots as a percentage of shoots on substrates without mannose and methyl-3-0-glucose (Wild type explants; [18]): 0 | regenerated shoots as a percentage of shoots on substrates without mannose and methyl-3-0-glucose (Wild type explants; [19]): 0 | regenerated shoots as a percentage of shoots on substrates without mannose and methyl-3-0-glucose (Wild type explants; [20]): 0 | regenerated shoots as a percentage of shoots on substrates without mannose and methyl-3-0-glucose (Wild type explants; [21]): 0 | GUS+ shoots/explant ([1]; MOG 2.5 g/l): 0.2 | GUS+ shoots/sel. shoots (%) ([1]; MOG 2.5 g/l): 57% | GUS+ shoots/explant ([1]; MOG 5.0 g/l): 1.0 | GUS+ shoots/sel. shoots (%) ([1]; MOG 5.0 g/l): 81% | GUS+ shoots/explant ([1]; MOG 10 g/l): 0.5 | GUS+ shoots/sel. shoots (%) ([1]; MOG 10 g/l): 89% | GUS+ shoots/explant ([1]; MOG 15 g/l): 0.6 | GUS+ shoots/sel. shoots (%) ([1]; MOG 15 g/l): 53% | regenerated shoots as a percentage of shoots on substrates without mannose and methyl-3-0-glucose ([2]; MOG 2.5, mannose 0 g/l, sucrose 0 g/l): 0 | regenerated shoots as a percentage of shoots on substrates without mannose and methyl-3-0-glucose [2, 7]: 0 | regenerated shoots as a percentage of shoots on substrates without mannose and methyl-3-0-glucose [2, 8]: 7 | regenerated shoots as a percentage of shoots on substrates without mannose and methyl-3-0-glucose [2, 9]: 64 | regenerated shoots as a percentage of shoots on substrates without mannose and methyl-3-0-glucose [2, 10]: 64 | regenerated shoots as a percentage of shoots on substrates without mannose and methyl-3-0-glucose [2, 11]: 86 | regenerated shoots as a percentage of shoots on substrates without mannose and methyl-3-0-glucose [2, 12]: 107 | regenerated shoots as a percentage of shoots on substrates without mannose and methyl-3-0-glucose [2, 13]: 200 | regenerated shoots as a percentage of shoots on substrates without mannose and methyl-3-0-glucose [2, 14]: 0 | regenerated shoots as a percentage of shoots on substrates without mannose and methyl-3-0-glucose [2, 15]: 0 | regenerated shoots as a percentage of shoots on substrates without mannose and methyl-3-0-glucose [2, 16]: 0 | regenerated shoots as a percentage of shoots on substrates without mannose and methyl-3-0-glucose [2, 17]: 64 | regenerated shoots as a percentage of shoots on substrates without mannose and methyl-3-0-glucose [2, 18]: 28 | regenerated shoots as a percentage of shoots on substrates without mannose and methyl-3-0-glucose [2, 19]: 36 | regenerated shoots as a percentage of shoots on substrates without mannose and methyl-3-0-glucose [2, 20]: 128 | regenerated shoots as a percentage of shoots on substrates without mannose and methyl-3-0-glucose [2, 21]: 86

C/C(=C\CNc1ncnc2[nH]cnc12)CO[C@@H]1O[C@H](C(=O)O)[C@@H](O)[C@H](O)[C@H]1O [ZOGN sodium salt, O-β-D-glucopyranuronosylzeatin, sodium salt]
Hydrolysis by β-glucuronidase (GUS), result in words ([3]; 50 mM sodium phosphate buffer pH 7.0, 37° C., HPLC/TLC): virtually complete conversion to trans zeatin | Shoot formation, GUS- [4]: + ("+" means shoot formation at concentrations below 250 μM) | Shoot formation, GUS+ [5]: + ("+" means shoot formation at concentrations below 250 μM)

CC(C)=CCNc1ncnc2[nH]c(S[C@@H]3O[C@H](C(=O)O)[C@@H](O)[C@H](O)[C@H]3O)nc12 [IP8SGN sodium salt, 6-(3-methyl-but-2-enylamino)purine-8-yl-1-thio-β-D-glucopyranuronic acid, sodium salt]
conversion to the aglycone by GUS ([3]; 1 mg/ml, 2500 units GUS, 24 hours, 37° C., TLC): > 95% | Shoot formation, GUS- [4]: + ("+" means shoot formation at concentrations below 250 μM) | Shoot formation, GUS+ [5]: + ("+" means shoot formation at concentrations below 250 μM)

O=C(CCc1ccc(O)cc1)c1c(O)cc(O)cc1O[C@@H]1O[C@H](CO)[C@@H](O)[C@H](O)[C@H]1O [Phloridzin, phloridzin]
GUS+ Shoots/Expl. [6, 22]: 1.2 | GUS+ Shoots/Sel. Shoots [6, 22]: 94.0% | GUS+ Shoots/Expl. [6, 23]: 0.08 | GUS+ Shoots/Sel. Shoots [6, 23]: 100.0% | GUS+ Shoots/Expl. [6, 24]: 0.5 | GUS+ Shoots/Sel. Shoots [6, 24]: 88.0% | GUS+ Shoots/Expl. [6, 25]: 0.5 | GUS+ Shoots/Sel. Shoots [6, 25]: 78.5% | GUS+ Shoots/Expl. [6, 26]: 0.5 | GUS+ Shoots/Sel. Shoots [6, 26]: 100.0% | GUS+ Shoots/Expl. [6, 27]: 0.5 | GUS+ Shoots/Sel. Shoots [6, 27]: 95% | GUS+ Shoots/Expl. [6, 28]: 0.03 | GUS+ Shoots/Sel. Shoots [6, 28]: 100% | GUS+ Shoots/Expl. ([6]; mannose 12.5 g/l, second '+ Sucrose' column): 0.0 | GUS+ Shoots/Expl. [6, 29]: 0.03 | GUS+ Shoots/Sel. Shoots [6, 29]: 100% | GUS+ Shoots/Expl. ([6]; mannose 15.0 g/l, second '+ Sucrose' column): 0.0

O=C(O)[C@H]1OC(O)[C@H](O)[C@@H](O)[C@@H]1O (some centres unmarked) [Glucuronic acid]
Shoot formation, GUS- [4]: - ("-" means no shoot formation at concentrations below 250 μM) | Shoot formation, GUS+ [5]: - ("-" means no shoot formation at concentrations below 250 μM)

C/C(=C\CNc1ncnc2[nH]cnc12)CO [Zeatin]
Shoot formation, GUS- [4]: + ("+" means shoot formation at concentrations below 250 μM) | Shoot formation, GUS+ [5]: + ("+" means shoot formation at concentrations below 250 μM)
